Test results taken from patent publication US11168093B2, “Thienopyridine inhibitors of RIPK2” (Celgene Corporation, priority 2018, dated 2021).

target: RIPK2 enzyme (Homo sapiens (Human), UniProt O43353); experiment: RIPK2 inhibition assay, TR-FRET LanthaScreen Tracer 199 screening assay; format: binding; details: 5 nM RIPK2 enzyme, Tracer 199 at 50 nM, Eu-anti-His Antibody at 2 nM, 1 hour incubation
Outline: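 TR-FRET binding displacement: 5 nM RIPK2, 50 nM Tracer 199, 2 nM Eu-anti-His antibody in 1× kinase reaction buffer, 1 h, read at room temperature (340 ex/665 and 615 em). No-enzyme background subtracted; percent inhibition versus uninhibited controls, IC50 from unconstrained variable-slope fit.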

RIPK2 enzyme, sequence (O43353 whole entry): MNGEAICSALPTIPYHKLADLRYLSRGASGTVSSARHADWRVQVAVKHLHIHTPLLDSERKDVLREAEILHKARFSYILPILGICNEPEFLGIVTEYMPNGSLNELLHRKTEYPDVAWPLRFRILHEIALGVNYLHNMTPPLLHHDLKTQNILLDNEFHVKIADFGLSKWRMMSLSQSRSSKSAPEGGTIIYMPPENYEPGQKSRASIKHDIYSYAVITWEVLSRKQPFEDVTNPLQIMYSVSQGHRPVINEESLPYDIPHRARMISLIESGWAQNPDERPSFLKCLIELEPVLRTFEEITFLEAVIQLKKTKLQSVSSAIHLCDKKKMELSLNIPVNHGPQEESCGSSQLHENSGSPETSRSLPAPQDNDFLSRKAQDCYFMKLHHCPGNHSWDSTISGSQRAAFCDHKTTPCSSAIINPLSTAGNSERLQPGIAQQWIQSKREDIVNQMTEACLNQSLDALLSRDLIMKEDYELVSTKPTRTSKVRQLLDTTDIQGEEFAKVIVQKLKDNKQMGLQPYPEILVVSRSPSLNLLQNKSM

| IC50 | SMILES |
| --- | --- |
| ≤ 10 nM | CCC1C(c2cc3c(Nc4ccc5scnc5c4)ccnc3s2)CCCN1C (stereo not shown) [Example 23a, N-(2-(2-ethyl-1-methylpiperidin-3-yl)thieno[2,3-b]pyridin-4-yl)benzo[d]thiazol-5-amine] |
| 10 to 20 nM | CC1NCCCC1c1cc2c(Nc3cc4ncsc4cc3F)c(F)cnc2s1 (single isomer, unassigned) [Example 122c, 6-fluoro-N-(5-fluoro-2-(2-methylpiperidin-3-yl)thieno[2,3-b]pyridin-4-yl) benzo[d]thiazol-5-amine] |
| ≤ 10 nM | C[C@@H]1[C@H](c2cc3c(Nc4c(F)cc5scnc5c4F)ccnc3s2)CCCN1C [Example 70b, N-(2-((2R,3R)-1,2-dimethylpiperidin-3-yl)thieno[2,3-b]pyridin-4-yl)-4,6-difluorobenzo[d]-thiazol-5-amine] |
| ≤ 10 nM | C[C@H]1NCCC[C@H]1c1cc2c(Nc3c(F)cc4scnc4c3F)ccnc2s1 [Example 67b, 4,6-difluoro-N-(2-((2R,3R)-2-methylpiperidin-3-yl)thieno[2,3-b]pyridin-4-yl)benzo[d]thiazol-5-amine] |
| 10 to 20 nM | C[C@@H]1NCCC[C@H]1c1cc2c(Nc3ccc4scnc4c3F)ccnc2s1 [Example 57a, 4-fluoro-N-(2-((2S,3R)-2-methylpiperidin-3-yl)thieno-[2,3-b]pyridin-4-yl)benzo[d]thiazol-5-amine] |
| 20 to 50 nM | CC1C(c2cc3c(Nc4ccc5scnc5c4)c(F)cnc3s2)CCCN1C (single isomer, unassigned) [Example 120a, N-(2-(1,2-dimethylpiperidin-3-yl)-5-fluorothieno[2,3-b]pyridin-4-yl)benzo[d]-thiazol-5-amine] |
| ≤ 10 nM | CC1NCCCC1c1cc2c(Nc3ccc4scnc4c3F)c(F)cnc2s1 (single isomer, unassigned) [Example 124c, 4-fluoro-N-(5-fluoro-2-(2-methylpiperidin-3-yl)thieno[2,3-b]pyridin-4-yl)benzo[d]thiazol-5-amine] |
| ≤ 10 nM | C[C@@H]1NCCC[C@@H]1c1cc2c(Nc3c(F)cc4scnc4c3F)ccnc2s1 [Example 68b, 4,6-difluoro-N-(2-((2S,3S)-2-methylpiperidin-3-yl)thieno[2,3-b]pyridin-4-yl)benzo[d]thiazol-5-amine] |
| ≥ 50 nM | CC1C(c2cc3c(Nc4ccc5scnc5c4F)c(F)cnc3s2)CCCN1C (single isomer, unassigned) [Example 125d, N-(2-(1,2-dimethylpiperidin-3-yl)-5-fluorothieno[2,3-b]pyridin-4-yl)-4-fluorobenzo[d]thiazol-5-amine] |
| ≤ 10 nM | CC1NCCCCC1c1cc2c(Nc3ccc4scnc4c3)ccnc2s1 (stereo not shown) [Example 115a, N-(2-(2-methylazepan-3-yl)thieno[2,3-b]pyridin-4-yl)benzo[d]thiazol-5-amine] |
| ≤ 10 nM | CC1NCCCC1c1cc2c(Nc3ccc4scnc4c3F)c(F)cnc2s1 (single isomer, unassigned) [Example 124b, 4-fluoro-N-(5-fluoro-2-(2-methylpiperidin-3-yl)thieno[2,3-b]pyridin-4-yl)benzo[d]thiazol-5-amine] |

The next lines start with the compound.

| SMILES | IC50 |
| --- | --- |
| CC1(C)NCCC1c1cc2c(Nc3c(F)cc4scnc4c3F)ccnc2s1 (stereo not shown) [Example 96, N-(2-(2,2-dimethylpyrrolidin-3-yl)thieno[2,3-b]pyridin-4-yl)-4,6-difluorobenzo[d]thiazol-5-amine] | ≤ 10 nM |
| CN1CCC(c2cc3c(Nc4cc5ncsc5cc4F)ccnc3s2)C12CCOC2 (stereo not shown) [Example 82, 6-fluoro-N-(2-(1-methyl-7-oxa-1-azaspiro[4.4]nonan-4-yl)thieno[2,3-b]pyridin-4-yl)benzo[d]thiazol-5-amine] | ≥ 50 nM |
| CC1NCCC1c1cc2c(Nc3c(F)cc4scnc4c3F)ccnc2s1 (stereo not shown) [Example 93, 4,6-difluoro-N-(2-(2-methylpyrrolidin-3-yl)thieno[2,3-b]pyridin-4-yl)benzo[d]thiazol-5-amine] | ≤ 10 nM |
| CC(=O)N1CCCC(c2cc3c(Nc4ccc5scnc5c4)ccnc3s2)CC1 (stereo not shown) [Example 111, 1-(4-(4-(benzo[d]thiazol-5-ylamino)thieno[2,3-b]pyridin-2-yl)azepan-1-yl)ethan-1-one] | 10 to 20 nM |
| CCN1CCC(c2cc3c(Nc4cc5ncsc5cc4F)ccnc3s2)C1C (stereo not shown) [Example 76, N-(2-(1-ethyl-2-methylpyrrolidin-3-yl)thieno[2,3-b]pyridin-4-yl)-6-fluorobenzo[d]thiazol-5-amine] | 10 to 20 nM |
| CC1C(c2cc3c(Nc4ccc5scnc5c4)ccnc3s2)=CCCN1C (stereo not shown) [Example 2, N-(2-(1,2-dimethyl-1,2,5,6-tetrahydropyridin-3-yl)thieno[2,3-b]pyridin-4-yl)benzo[d]thiazol-5-amine] | ≤ 10 nM |
| CC(C)N1CCCC(c2cc3c(Nc4ccc5scnc5c4)ccnc3s2)C1C (stereo not shown) [Example 8, N-(2-(1-isopropyl-2-methylpiperidin-3-yl)thieno[2,3-b]pyridin-4-yl)benzo[d]thiazol-5-amine] | ≤ 10 nM |
| CCN1CCC=C(c2cc3c(Nc4ccc5scnc5c4)ccnc3s2)C1C (stereo not shown) [Example 5, N-(2-(1-ethyl-2-methyl-1,2,5,6-tetrahydropyridin-3-yl)thieno[2,3-b]pyridin-4-yl)benzo[d]thiazol-5-amine] | ≤ 10 nM |
| C1=C(c2cc3c(Nc4ccc5scnc5c4)ccnc3s2)C2(CCOCC2)NC1 [Example 46, N-(2-(8-oxa-1-azaspiro[4.5]dec-3-en-4-yl)thieno[2,3-b]pyridin-4-yl)benzo[d]thiazol-5-amine] | ≤ 10 nM |
| CCN1CCC[C@H](c2cc3c(Nc4ccc5scnc5c4F)ccnc3s2)[C@H]1C [Example 62, N-(2-((2R,3S)-1-ethyl-2-methylpiperidin-3-yl)thieno[2,3-b]pyridin-4-yl)-4-fluorobenzo[d]thiazol-5-amine] | ≤ 10 nM |
| CC1NCCC=C1c1cc2c(Nc3ccc4scnc4c3)ccnc2s1 (stereo not shown) [Example 1, N-(2-(2-methyl-1,2,5,6-tetrahydropyridin-3-yl)thieno[2,3-b]pyridin-4-yl)benzo[d]thiazol-5-amine] | ≤ 10 nM |
| CCC1C(c2cc3c(Nc4ccc5scnc5c4)ccnc3s2)CCCN1CC (stereo not shown) [Example 24, N-(2-(1,2-diethylpiperidin-3-yl)thieno[2,3-b]pyridin-4-yl)benzo[d]thiazol-5-amine] | 10 to 20 nM |
| CCN1CCC(c2cc3c(Nc4c(F)cc5scnc5c4F)ccnc3s2)C1C (stereo not shown) [Example 94, N-(2-(1-ethyl-2-methylpyrrolidin-3-yl)thieno[2,3-b]pyridin-4-yl)-4,6-difluorobenzo[d]thiazol-5-amine] | ≤ 10 nM |
| CN1CCC(c2cc3c(Nc4c(F)cc5scnc5c4F)ccnc3s2)C12CCOC2 (stereo not shown) [Example 100, 4,6-difluoro-N-(2-(1-methyl-7-oxa-1-azaspiro[4.4]nonan-4-yl)thieno[2,3-b]pyridin-4-yl)benzo[d]thiazol-5-amine] | 10 to 20 nM |
| c1cc(Nc2ccc3scnc3c2)c2cc(C3CCCN4CCCCC34)sc2n1 (stereo not shown) [Example 21, N-(2-(octahydro-2H-quinolizin-1-yl)thieno[2,3-b]pyridin-4-yl)benzo[d]thiazol-5-amine] | 20 to 50 nM |
| CCN1CCC(c2cc3c(Nc4c(F)cc5scnc5c4F)ccnc3s2)C1(C)C (stereo not shown) [Example 97, N-(2-(1-ethyl-2,2-dimethylpyrrolidin-3-yl)thieno[2,3-b]pyridin-4-yl)-4,6-difluorobenzo[d]thiazol-5-amine] | ≤ 10 nM |
| CC1NCCC1c1cc2c(Nc3cc4ncsc4cc3F)ccnc2s1 (stereo not shown) [Example 75, 6-fluoro-N-(2-(2-methylpyrrolidin-3-yl)thieno[2,3-b]pyridin-4-yl)benzo[d]thiazol-5-amine] | ≤ 10 nM |
| CC1(C)NCC=C1c1cc2c(Nc3ccc4scnc4c3)ccnc2s1 [Example 32, N-(2-(2,2-dimethyl-2,5-dihydro-1H-pyrrol-3-yl)thieno[2,3-b]pyridin-4-yl)benzo[d]thiazol-5-amine] | ≤ 10 nM |
| C[C@@H]1C(c2cc3c(Nc4c(F)cc5scnc5c4F)ccnc3s2)=CCCN1C [Example 69, (R)—N-(2-(1,2-dimethyl-1,2,5,6-tetrahydropyridin-3-yl)thieno[2,3-b]pyridin-4-yl)-4,6-difluorobenzo[d]thiazol-5-amine] | ≤ 10 nM |
| c1cc(Nc2ccc3scnc3c2)c2cc(C3CCCNCC3)sc2n1 (stereo not shown) [Example 108, N-(2-(azepan-4-yl)thieno[2,3-b]pyridin-4-yl)benzo[d]thiazol-5-amine] | ≤ 10 nM |
| COCCN1CCC=C(c2cc3c(Nc4ccc5scnc5c4)ccnc3s2)C1C (stereo not shown) [Example 12, N-(2-(1-(2-methoxyethyl)-2-methyl-1,2,5,6-tetrahydropyridin-3-yl)thieno[2,3-b]pyridin-4-yl)benzo[d]thiazol-5-amine] | ≤ 10 nM |
| CC1C(c2cc3c(Nc4ccc5scnc5c4F)ccnc3s2)CCN1CCO (stereo not shown) [Example 89, 2-(3-(4-((4-fluorobenzo[d]thiazol-5-yl)amino)thieno[2,3-b]pyridin-2-yl)-2-methylpyrrolidin-1-yl)ethan-1-ol] | ≤ 10 nM |
| C[C@H]1[C@@H](c2cc3c(Nc4ccc5scnc5c4)ccnc3s2)CCCN1C [Example 4d, N-(2-(1,2-dimethylpiperidin-3-yl)thieno[2,3-b]pyridin-4-yl)benzo[d]thiazol-5-amine] | ≤ 10 nM |
| C[C@H]1[C@H](c2cc3c(Nc4ccc5scnc5c4F)ccnc3s2)CCCN1C [Example 59, N-(2-((2S,3R)-1,2-dimethylpiperidin-3-yl)thieno[2,3-b]pyridin-4-yl)-4-fluorobenzo[d]thiazol-5-amine] | ≤ 10 nM |
| CCN1CCCC(c2cc3c(Nc4ccc5scnc5c4)ccnc3s2)C1C (stereo not shown) [Example 6, N-(2-(1-ethyl-2-methylpiperidin-3-yl)thieno[2,3-b]pyridin-4-yl)benzo[d]thiazol-5-amine] | ≤ 10 nM |
| CC1NCC=C1c1cc2c(Nc3ccc4scnc4c3)ccnc2s1 (stereo not shown) [Example 25, N-(2-(2-methyl-2,5-dihydro-1H-pyrrol-3-yl)thieno[2,3-b]pyridin-4-yl)benzo[d]thiazol-5-amine] | ≤ 10 nM |
